Target: Human Factor D (Homo sapiens (Human), UniProt P00746)
Test: Human Factor D Assay
Format: biochemical
Details: Factor D inhibition, assay of Example 10; read-out: IC5 (Stars)
How it was run: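 Thioester substrate Z-L-Lys-SBz (100 μM) with Ellman's reagent DTNB (100 μM) reports activity of 80 nM human serum-derived enzyme, kinetically at 405 nm over 30 min. Compound preincubated 5 min, room temperature, pH 7.5 Tris/1 M NaCl; IC50 by nonlinear fit of rates.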

Chain of Human Factor D (P00746 26-253): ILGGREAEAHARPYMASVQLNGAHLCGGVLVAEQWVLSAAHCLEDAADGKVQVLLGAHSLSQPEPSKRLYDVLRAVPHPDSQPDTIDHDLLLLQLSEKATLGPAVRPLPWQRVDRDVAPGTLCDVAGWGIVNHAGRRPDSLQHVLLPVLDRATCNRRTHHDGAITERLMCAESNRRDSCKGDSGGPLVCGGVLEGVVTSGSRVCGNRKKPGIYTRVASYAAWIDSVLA

SMILES | IC50 [nM]
CC(=O)c1nn(CC(=O)N2[C@H](C(=O)Nc3nc(Br)ccc3C)C[C@@]3(CN4CC5(CCC5)C4)C[C@@H]23)c2c(C)nc(-c3cnc(C)nc3)cc12 [Compound 344, (1R,3S,5R)-5-(2-azaspiro[3.3]heptan-2-ylmethyl)-2-(2-(3-acetyl-7-methyl-5-(2-methylpyrimidin-5-yl)-1H-pyrazolo[3,4-c]pyridin-1-yl)acetyl)-N-(6-bromo-3-methylpyridin-2-yl)-2-azabicyclo[3.1.0]hexane-3-carboxamide] | < 1000
CC(=O)c1nn(CC(=O)N2[C@H](C(=O)Nc3nc(Br)c(F)cc3C)C[C@@]3(CN4CC(F)(F)C4)C[C@@H]23)c2cnc(-c3cnc(C)nc3)cc12 [Compound 250, (1R,3S,5R)-2-(2-(3-acetyl-5-(2-methylpyrimidin-5-yl)-1H-pyrazolo[3,4-c]pyridin-1-yl)acetyl)-N-(6-bromo-5-fluoro-3-methylpyridin-2-yl)-5-((3,3-difluoroazetidin-1-yl)methyl)-2-azabicyclo[3.1.0]hexane-3-carboxomide] | < 1000
Cc1ncc(-c2ccc3c(c2)c(C(=O)c2ncc[nH]2)nn3CC(=O)N2[C@H](C(=O)Nc3nc(Br)ccc3C)C[C@@]3(C)C[C@@H]23)cn1 [Compound 389, (1R,3S,5R)-2-(2-(3-(1H-Imidazole-2-carbonyl)-5-(2-methylpyrimidin-5-yl)-1H-indazol-1-yl)acetyl)-N-(6-bromo-3-methylpyridin-2-yl)-5-methyl-2-azabicyclo[3.1.0]hexane-3-carboxamide] | > 10000
CC(=O)c1nn(CC(=O)N2[C@H](C(=O)Nc3cc(C(C)C)cc(Br)n3)C[C@@]3(C)C[C@@H]23)c2ccc(-c3cnc(C)nc3)cc12 [Compound 541, (1R,3S,5R)-2-(2-(3-acetyl-5-(2-methylpyrimidin-5-yl)-1H-indazol-1-yl)acetyl)-N-(6-bromo-4-isopropylpyridin-2-yl)-5-methyl-2-azabicyclo[3.1.0]hexane-3-carboxamide] | < 1000
CC(=O)c1nn(CC(=O)N2[C@H](C(=O)NC(CC(C)C)CC(C)C)C[C@@]3(C)C[C@@H]23)c2c(C)cc(-c3cnc(C)nc3)cc12 [Compound 517, (1R,3S,5R)-2-(2-(3-acetyl-7-methyl-5-(2-methylpyrimidin-5-yl)-1H-indazol-1-yl)acetyl)-N-(2,6-dimethylheptan-4-yl)-5-methyl-2-azabicyclo[3.1.0]hexane-3-carboxamide] | < 1000
CCNC(=O)c1nn(CC(=O)N2[C@H](C(=O)Nc3nc(Br)ccc3C)C[C@@]3(C)C[C@@H]23)c2ccc(-c3cnc(C)nc3)cc12 [Compound 474, 1-{2-[(1R,3S,5R)-3-[(6-Bromo-3-methylpyridin-2-yl)carbamoyl]-5-methyl-2-azabicyclo[3.1.0]hexan-2-yl]-2-oxoethyl}-N-ethyl-5-(2-methylpyrimidin-5-yl)indazole-3-carboxamide] | < 1000
CC(=O)c1nn(CC(=O)N2[C@H](C(=O)Nc3nc(Br)ccc3CN3CC(F)C3)C[C@@]3(C)C[C@@H]23)c2ccc(-c3cnc(C)nc3)cc12 [Compound 364, (1R,3S,5R)-2-(2-(3-acetyl-5-(2-methylpyrimidin-5-yl)-1H-indazol-1-yl)acetyl)-N-(6-bromo-3-((3-fluoroazetidin-1-yl)methyl)pyridin-2-yl)-5-methyl-2-azabicyclo[3.1.0]hexane-3-carboxamide] | < 1000
CC(=O)c1nn(CC(=O)N2[C@H](C(=O)N[C@H](C)c3cccc(Cl)c3F)C[C@@]3(C)C[C@@H]23)c2ccc(-c3cnc(C)nc3)cc12 [Compound 601, (1R,3S,5R)-2-(2-(3-acetyl-5-(2-methylpyrimidin-5-yl)-1H-indazol-1-yl)acetyl)-N-((R)-1-(3-chloro-2-fluorophenyl)ethyl)-5-methyl-2-azabicyclo[3.1.0]hexane-3-carboxamide] | < 1000
CC(=O)c1nn(CC(=O)N2C[C@@](F)(CF)C[C@H]2C(=O)Nc2nc(Br)c(F)cc2C)c2c(C)nc(-c3cnc(C)nc3)cc12 [Compound 417, (2S,4R)-1-(2-(3-acetyl-7-methyl-5-(2-methylpyrimidin-5-yl)-1H-pyrazolo[3,4-c]pyridin-1-yl)acetyl)-N-(6-bromo-5-fluoro-3-methylpyridin-2-yl)-4-fluoro-4-(fluoromethyl)pyrrolidine-2-carboxamide] | < 1000
CC(=O)c1nn(CC(=O)N2[C@H](C(=O)Nc3nc(Br)ccc3C)C[C@@]3(Cn4cncn4)C[C@@H]23)c2cnc(-c3cnc(C)nc3)cc12 [Compound 313, (1R,3S,5R)-5-((1H-1,2,4-triazol-1-yl)methyl)-2-(2-(3-acetyl-5-(2-methylpyrimidin-5-yl)-1H-pyrazolo[3,4-c]pyridin-1-yl)acetyl)-N-(6-bromo-3-methylpyridin-2-yl)-2-azabicyclo[3.1.0]hexane-3-carboxamide] | < 1000
CC(=O)c1nn(CC(=O)N2[C@H](C(=O)Nc3nc(Br)ccc3C)C[C@@]3(CN(C)C)C[C@@H]23)c2c(C(F)CF)cc(-c3cnc(C)nc3)cc12 (stereo partly drawn) [Compound 325, (1R,3S,5R)-2-(2-(3-acetyl-7-(1,2-difluoroethyl)-5-(2-methylpyrimidin-5-yl)-1H-indazol-1-yl)acetyl)-N-(6-bromo-3-methylpyridin-2-yl)-5-((dimethylamino)methyl)-2-azabicyclo[3.1.0]hexane-3-carboxamide] | < 1000
CC(=O)c1nn(CC(=O)N2[C@H](C(=O)Nc3cc(C(F)(F)F)cc(Br)n3)C[C@@]3(C)C[C@@H]23)c2ccc(-c3cnc(C)nc3)cc12 [Compound 550, (1R,3S,5R)-2-(2-(3-acetyl-5-(2-methylpyrimidin-5-yl)-1H-indazol-1-yl)acetyl)-N-(6-bromo-4-(trifluoromethyl)pyridin-2-yl)-5-methyl-2-azabicyclo[3.1.0]hexane-3-carboxamide] | < 1000

Same assay, conditions: Table 6; Factor D 80 nM, substrate Z-L-Lys-SBz; read-out: IC50

SMILES | IC50 [nM]
CC(=O)c1nn(CC(=O)N2[C@H](C(=O)Nc3nc(Br)ccc3C)C[C@@]3(C)C[C@@H]23)c2cnc(-c3cnc(C)nc3)cc12 [Compound 15, (1R,3S,5R)-2-(2-(3-Acetyl-5-(2-methylpyrimidin-5-yl)-1H-pyrazolo[3,4-c]pyridin-1-yl)acetyl)-N-(6-bromo-3-methylpyridin-2-yl)-5-methyl-2-azabicyclo[3.1.0]hexane-3-carboxamide] | < 1000
CC(=O)c1nn(CC(=O)N2C[C@H](F)C[C@H]2C(=O)Nc2cccc(Br)n2)c2c(Cc3ncc(C)cn3)cc(-c3cnc(C)nc3)cc12 [Compound 21, (2S,4R)-1-(2-(3-acetyl-7-((5-methylpyrimidin-2-yl)methyl)-5-(2-methylpyrimidin-5-yl)-1H-indazol-1-yl)acetyl)-N-(6-bromopyridin-2-yl)-4-fluoropyrrolidine-2-carboxamide] | < 1000
CC(=O)c1nn(CC(=O)N2C[C@H](F)C[C@H]2C(=O)Nc2cccc(O)n2)c2ccc(-c3cnc(C)nc3)cc12 [Compound 83, (2S,4R)-1-(2-(3-Acetyl-5-(2-methylpyrimidin-5-yl)-1H-indazol-1-yl)acetyl)-4-fluoro-N-(6-hydroxypyridin-2-yl)pyrrolidine-2-carboxamide] | 1000 to 10000
COc1ncc(-c2cc3c(C(C)=O)nn(CC(=O)N4[C@H](C(=O)Nc5nc(Br)c(F)cc5C)C[C@@]5(C)C[C@@H]45)c3cn2)cn1 [Compound 198, (1R,3S,5R)-2-(2-(3-Acetyl-5-(2-methoxypyrimidin-5-yl)-1H-pyrazolo[3,4-c]pyridin-1-yl)acetyl)-N-(6-bromo-5-fluoro-3-methylpyridin-2-yl)-5-methyl-2-azabicyclo[3.1.0]hexane-3-carboxamide] | < 1000
CC(=O)c1nn(CC(=O)N2C[C@H]3CCC[C@H]3[C@H]2C(=O)Nc2cccc(Br)n2)c2ccc(-c3cnc(C)nc3)cc12 [Compound 2, (1S,3aS,6aR)-2-(2-(3-Acetyl-5-(2-methylpyrimidin-5-yl)-1H-indazol-1-yl)acetyl)-N-(6-bromopyridin-2-yl)octahydrocyclopenta[c]pyrrole-1-carboxamide] | 1000 to 10000
CC(=O)c1nn(CC(=O)N2[C@H](C(=O)Nc3nc(Br)ccc3C)C[C@@]3(CN(C)C)C[C@@H]23)c2ccc(-c3cnc(C)nc3)cc12 [Compound 9] | < 1000
COC(=O)N[C@H](C(=O)NCC12CC1N(C(=O)Cn1nc(C(C)=O)c3cc(-c4cnc(C)nc4)ccc31)[C@H](C(=O)Nc1cccc(Br)n1)C2)C(C)C (stereo partly drawn) [Compound 45, Methyl (2S)-1-(((3S)-2-(2-(3-acetyl-5-(2-methylpyrimidin-5-yl)-1H-indazol-1-yl)acetyl)-3-(6-bromopyridin-2-ylcarbamoyl)-2-azabicyclo[3.1.0]hexan-5-yl)methylamino)-3-methyl-1-oxobutan-2-ylcarbamate] | < 1000

Same assay, conditions: Table 8; Factor D 80 nM, substrate Z-L-Lys-SBz; read-out: IC50

SMILES | IC50 [nM]
Cc1ncc(-c2ccc3c(c2)c(C(=O)NCCN(C)C)nn3CC(=O)N2[C@H](C(=O)Nc3nc(Br)ccc3C)C[C@@]3(C)C[C@@H]23)cn1 [Compound 491, 1-(2-((1R,3S,5R)-3-((6-bromo-3-methylpyridin-2-yl)carbamoyl)-5-methyl-2-azabicyclo[3.1.0]hexan-2-yl)-2-oxoethyl)-N-(2-(dimethylamino)ethyl)-5-(2-methylpyrimidin-5-yl)-1H-indazole-3-carboxamide] | > 10000
C=CCCCC(=O)NC[C@@]12C[C@@H](C(=O)Nc3nc(Br)ccc3C)N(C(=O)Cn3nc(C(C)=O)c4cc(-c5cnc(C)nc5)cc(CCC=C)c43)[C@@H]1C2 [Compound 266, (1R,3S,5R)-2-(2-(3-acetyl-7-(but-3-en-l-yl)-5-(2-methylpyrimidin-5-yl)-1H-indazol-1-yl)acetyl)-N-(6-bromo-3-methylpyridin-2-yl)-5-(hex-5-enamidomethyl)-2-azabicyclo[3.1.0]hexane-3-carboxamide] | < 1000
COC(=O)CCCCCCCCCCCCCCCCC(=O)N[C@@H](CCC(=O)NCCOCCOCC(=O)NCCOCCOCC(=O)NC[C@@]12C[C@@H](C(=O)Nc3nc(Br)ccc3C)N(C(=O)Cn3nc(C(C)=O)c4cc(-c5cnc(C)nc5)ncc43)[C@@H]1C2)C(=O)OC [Compound 406] | < 1000
